Results from patent publication US20220176084A1, “MEDICAL DEVICE WITH DRUG-ELUTING COATING ON MODIFIED DEVICE SURFACE” (Bard Peripheral Vascular, Inc., priority 2019, published 2022).

Legend:
[1] = octanol/water; cited from earlier work
[2] = stability under ethylene oxide sterilization, heating and aging; reaction with paclitaxel; conditions: for reaction with paclitaxel: ethylene oxide sterilization, heating, aging
[3] = cited from earlier work
protein = conditions: cited from earlier work
albumin = albumin (Homo sapiens, UniProt P02768); conditions: share of protein binding; cited from earlier work
Sequence of albumin (P02768 25-609): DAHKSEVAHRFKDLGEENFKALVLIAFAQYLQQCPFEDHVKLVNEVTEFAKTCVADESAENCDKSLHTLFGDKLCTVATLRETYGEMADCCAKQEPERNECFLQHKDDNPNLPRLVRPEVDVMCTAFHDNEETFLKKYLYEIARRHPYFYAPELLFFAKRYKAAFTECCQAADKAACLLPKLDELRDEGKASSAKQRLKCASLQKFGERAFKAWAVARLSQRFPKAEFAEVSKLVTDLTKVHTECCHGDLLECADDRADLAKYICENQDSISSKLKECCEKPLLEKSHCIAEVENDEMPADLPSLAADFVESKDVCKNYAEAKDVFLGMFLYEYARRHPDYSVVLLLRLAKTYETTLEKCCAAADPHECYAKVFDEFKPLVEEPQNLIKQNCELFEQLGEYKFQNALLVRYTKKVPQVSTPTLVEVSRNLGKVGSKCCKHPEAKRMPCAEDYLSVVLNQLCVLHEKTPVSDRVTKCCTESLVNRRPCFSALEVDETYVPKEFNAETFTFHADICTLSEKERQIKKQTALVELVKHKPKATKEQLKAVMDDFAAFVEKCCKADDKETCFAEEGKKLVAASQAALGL

[4] = drug absorption by tissue after brief balloon deployment; format: in vivo; conditions: formulated with paclitaxel; 0.2-2 minutes of deployment
Text: Some of the surfactants described herein are very stable under heating. They survive an ethylene oxide sterilization process.
When the chemical compounds described herein are formulated with paclitaxel, a top coat layer may be advantageous in order to prevent premature drug loss during the device delivery process before deployment at the target site, since hydrophilic small molecules sometimes release drug too easily. The chemical compounds herein rapidly elute drug off the balloon during deployment at the target site.
Mixtures or combinations of a surfactant and a water-soluble small molecule confer the advantages of both additives. The water insoluble drug often has a poor compatibility with highly water-soluble chemical compounds, and the surfactant improves compatibility. […] The surfactant reduces drug loss during transit to a target site. The water-soluble chemical compound improves the release of drug off the balloon and absorption of the drug in the tissue.

COc1ccc(O)c(C(C)(C)C)c1 [Butylated hydroxyanisole (BHA), Butylated hydroxyanisole]
log P [1]: 1.31

O=C(O)c1ccccc1 [benzoic acid]
reaction with paclitaxel [2]: reacted with paclitaxel
stability under ethylene oxide sterilization, heating, and aging process ([2]; experimentally): not stable

CC(=O)O[C@H]1C(=O)[C@@]2(C)[C@H]([C@H](OC(=O)c3ccccc3)[C@]3(O)C[C@H](OC(=O)[C@H](O)[C@@H](NC(=O)c4ccccc4)c4ccccc4)C(C)=C1C3(C)C)[C@]1(OC(C)=O)CO[C@@H]1C[C@@H]2O [paclitaxel, reference compound]
increase of solubility in PBS with the addition of BSA ([3]; PBS, BSA added): over 20 fold

NC(=O)c1cccnc1 [niacinamide]
water and ethanol solubility ([3]; in words): very high

CO[C@H]1C[C@@H]2CC[C@@H](C)[C@@](O)(O2)C(=O)C(=O)N2CCCC[C@H]2C(=O)O[C@H]([C@H](C)C[C@@H]2CC[C@@H](O)[C@H](OC)C2)CC(=O)[C@H](C)/C=C(\C)[C@@H](O)[C@@H](OC)C(=O)[C@H](C)C[C@H](C)/C=C/C=C/C=C/1C [rapamycin]
protein bound (protein): 92%
protein bound primarily to albumin (albumin): 97%

O=C1O[C@H](CO)[C@@H](O)[C@H]1O [ribonic acid lactone]
drug absorption by tissue / drug levels in tissue [4]: unexpectedly high

Cc1ncc(C[n+]2csc(CCO)c2C)c(N)n1 [thiamine]
water and ethanol solubility ([3]; in words): very high

O=C1O[C@H](CO)[C@@H](O)[C@H](O)[C@H]1O [gluconolactone]
drug absorption by tissue / drug levels in tissue [4]: unexpectedly high

OCCNCCO [diethanolamine]
survival of ethylene oxide sterilization process [2]: do not necessarily survive
reaction with paclitaxel [2]: reacted with paclitaxel

O=C1O[C@H]([C@@H](O)CO)C(O)=C1O [ascorbic acid]
reaction with paclitaxel [2]: reacted with paclitaxel

O=C(O)/C=C\C(=O)O [maleic acids]
water and ethanol solubility ([3]; in words): very high

Sudan Red
solubility in aqueous solvent ([3]; in words): insoluble

PEG-20 sorbitan monolaurate [Tween 20]
log P [1]: about 3.0
